Common to all, as to format: cell-based
Assay [1] concerns Staphylococcus aureus 100 (ATCC 29213). Briefly: MIC by broth microdilution, SA 100. In outline: (§1)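 Per CLSI: serial twofold handling automated, Mueller-Hinton broth, clinical isolate inoculum, MIC recorded.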
(Dilution methods test growth across graded concentrations, often in twofold steps.)

The subject of assay [2] is Staphylococcus epidermidis 835. In words: MIC by broth microdilution, SE 835. In outline:
as §1

For assay [3], the system named is Enterococcus faecalis 848 (VRE, Van A). Briefly: MIC by broth microdilution, EFc 848. The following applies: class symbols. Summed up:
as §1

Assay [4] concerns Streptococcus pneumoniae 1195 (ATCC 49619). Briefly: MIC by broth microdilution, SPNE 1195. In outline:
as §1

In assay [5] the test system is Enterococcus faecalis 101 (ATCC 29212). In words: MIC by broth microdilution, EFc 101. The following applies: class symbols. In outline: as §1
The test system of assay [6] is Staphylococcus aureus 2012 (VISA). In words: MIC by broth microdilution, SA 2012. To be noted: class symbols. Summed up:
as §1

The subject of assay [7] is Staphylococcus epidermidis 831 (MRSE). In words: MIC by broth microdilution, SE 831. To be noted: read-out: MIC SE 831. Summed up: as §1
The subject of assay [8] is Streptococcus pyogenes 712. In words: MIC by broth microdilution, SPY 712. In outline:
as §1

The test system of assay [9] is Staphylococcus aureus 757 (MRSA). Briefly: MIC by broth microdilution, SA 757. To be noted: read-out: MIC SA 757. Summed up:
as §1

For assay [10], the system named is Enterococcus faecium 752 (VRE, Van A). Briefly: MIC by broth microdilution, EFcm 752. To be noted: class symbols. In outline:
as §1

Assay [11] has as its system Enterococcus faecium 800. In words: MIC by broth microdilution, EFcm 800. In outline: as §1
[12] abbreviates: Staphylococcus aureus, ATCC29213, read-out: MIC SA 100.
The mark [13] stands for this setting: Staphylococcus epidermidis, 835, read-out: MIC SE 835.
[14] abbreviates: Enterococcus faecalis, VRE, read-out: MIC E FC 848, Enterococcus faecalis 848 (VRE, Van A).
Setting [15] is: Streptococcus pneumoniae, ATCC49619, read-out: MIC S PNE 1195.
[16] abbreviates: Enterococcus faecalis, ATCC29212, read-out: MIC E FC 101, Enterococcus faecalis 101 (ATCC 29212).
The mark [17] stands for this setting: Staphylococcus aureus, VISA, read-out: MIC SA 2012, Staphylococcus aureus 2012 (VISA).
Setting [18] is: Staphylococcus epidermidis, MRSE.
The mark [19] stands for this setting: Streptococcus pyogenes, 712, read-out: MIC S PYO 712.
The mark [20] stands for this setting: Enterococcus faecium, VRE, read-out: MIC E FCM 752, Enterococcus faecium 752 (VRE, Van A).
The mark [21] stands for this setting: Enterococcus faecium, 800, read-out: MIC E FCM 800.

≈ marks a conversion by molar mass, not a printed value. Read-outs that look alike come from different tables or passages of the source.

For the compound `CCCCCCc1ccc(S(=O)(=O)NCCCCCCNCc2c(O)cc3c(c2O)-c2cc(ccc2O)[C@H]2NC(=O)[C@@H]4NC(=O)[C@H](CC(N)=O)NC(=O)[C@H](NC(=O)[C@@H](CC(C)C)NC)[C@H](O)c5ccc(c(Cl)c5)Oc5cc4cc(c5O[C@@H]4O[C@H](CO)[C@@H](O)[C@H](O)[C@H]4O[C@H]4C[C@](C)(NC(=O)CN)[C@H](O)[C@H](C)O4)Oc4ccc(cc4Cl)[C@@H](O)[C@H](NC2=O)C(=O)N[C@@H]3C(=O)O)cc1` (atropisomer, axis not shown) [Compound 362], the MIC (as a rule, the smallest concentration in the dilution series that meets the test's criterion for growth inhibition) in assay [1] (ATCC29213, Staphylococcus aureus 100 (ATCC 29213), class symbols, read-out: MIC SA 100) lay in the range of 0.01 to 0.5 µg/mL (≈ 0.00538 to 0.269 µM); in [2] (Staphylococcus epidermidis 835, class symbols, read-out: MIC SE 835), 0.01 to 0.5 µg/mL (≈ 0.00538 to 0.269 µM); in assay [3] (Enterococcus faecalis 848 (VRE, Van A), read-out: MIC E FC 848), 8 to 16 µg/mL (≈ 4.3 to 8.61 µM); in assay [4] (ATCC49619, Streptococcus pneumoniae 1195 (ATCC 49619), class symbols, read-out: MIC S PNE 1195) it was 0.01 to 0.5 µg/mL (≈ 0.00538 to 0.269 µM); in [5] (ATCC29212, Enterococcus faecalis 101 (ATCC 29212), read-out: MIC E FC 101), 0.01 to 0.5 µg/mL (≈ 0.00538 to 0.269 µM); in assay [6] (Staphylococcus aureus 2012 (VISA), read-out: MIC SA 2012), 0.01 to 0.5 µg/mL (≈ 0.00538 to 0.269 µM). In addition, the MIC in assay [7] (Staphylococcus epidermidis 831 (MRSE), class symbols) lay in the range of 0.01 to 0.5 µg/mL (≈ 0.00538 to 0.269 µM); in [8] (Streptococcus pyogenes 712, class symbols, read-out: MIC S PYO 712) it was 0.01 to 0.5 µg/mL (≈ 0.00538 to 0.269 µM); in assay [9] (Staphylococcus aureus 757 (MRSA), class symbols), 0.01 to 0.5 µg/mL (≈ 0.00538 to 0.269 µM); in assay [10] (Enterococcus faecium 752 (VRE, Van A), read-out: MIC E FCM 752) it was 2 to 4 µg/mL (≈ 1.08 to 2.15 µM); in [11] (Enterococcus faecium 800, class symbols, read-out: MIC E FCM 800), 0.01 to 0.5 µg/mL (≈ 0.00538 to 0.269 µM).
As to `CCCCOc1ccc(CCNC(=O)Oc2cc(O)c3c(c2)[C@@H](C(=O)O)NC(=O)[C@H]2NC(=O)[C@H](NC(=O)[C@@H]4NC(=O)[C@H](CC(N)=O)NC(=O)[C@H](NC(=O)[C@@H](CC(C)C)NC)[C@H](O)c5ccc(c(Cl)c5)Oc5cc4cc(c5O[C@@H]4O[C@H](CO)[C@@H](O)[C@H](O)[C@H]4O[C@H]4C[C@](C)(N)[C@H](O)[C@H](C)O4)Oc4ccc(cc4Cl)[C@H]2O)c2ccc(O)c-3c2)cc1` (atropisomer, axis not shown) [Compound 351], the MIC in [1] (setting [12]) was 0.01 to 0.5 µg/mL (≈ 0.00599 to 0.3 µM); in assay [2] (setting [13]), 0.5 to 1 µg/mL (≈ 0.3 to 0.599 µM); in assay [3] (setting [14]) it was > 16 µg/mL; in assay [4] (setting [15]) it was 0.01 to 0.5 µg/mL (≈ 0.00599 to 0.3 µM); in assay [5] (setting [16]) it was 0.5 to 1 µg/mL (≈ 0.3 to 0.599 µM); in assay [6] (setting [17]), 4 to 8 µg/mL (≈ 2.4 to 4.79 µM). In addition, the minimum inhibitory concentration (MIC) lay in the range of 0.5 to 1 µg/mL (≈ 0.3 to 0.599 µM) in assay [7] (setting [18]); 0.01 to 0.5 µg/mL (≈ 0.00599 to 0.3 µM) in [8] (setting [19]); 0.01 to 0.5 µg/mL (≈ 0.00599 to 0.3 µM) in assay [9] (Staphylococcus aureus, MRSA); 8 to 16 µg/mL (≈ 4.79 to 9.59 µM) in assay [10] (setting [20]); 0.01 to 0.5 µg/mL (≈ 0.00599 to 0.3 µM) in [11] (setting [21]).
Turning to `CCCCCOCCNC(=O)Oc1cc(O)c2c(c1)[C@@H](C(=O)O)NC(=O)[C@H]1NC(=O)[C@H](NC(=O)[C@@H]3NC(=O)[C@H](CC(N)=O)NC(=O)[C@H](NC(=O)[C@@H](CC(C)C)NC)[C@H](O)c4ccc(c(Cl)c4)Oc4cc3cc(c4O[C@@H]3O[C@H](CO)[C@@H](O)[C@H](O)[C@H]3O[C@H]3C[C@](C)(N)[C@H](O)[C@H](C)O3)Oc3ccc(cc3Cl)[C@H]1O)c1ccc(O)c-2c1` (atropisomer, axis not shown) [Compound 348], the MIC in assay [1] (setting [12]) was 2 to 4 µg/mL (≈ 1.24 to 2.49 µM); in assay [2] (setting [13]) it was 4 to 8 µg/mL (≈ 2.49 to 4.98 µM); in [3] (setting [14]), > 16 µg/mL; in assay [4] (setting [15]) it was 0.01 to 0.5 µg/mL (≈ 0.00622 to 0.311 µM); in assay [5] (setting [16]), 2 to 4 µg/mL (≈ 1.24 to 2.49 µM); in assay [6] (setting [17]), 8 to 16 µg/mL (≈ 4.98 to 9.96 µM). Also, the MIC in assay [7] (setting [18]) was 4 to 8 µg/mL (≈ 2.49 to 4.98 µM); in assay [8] (setting [19]) it was 0.5 to 1 µg/mL (≈ 0.311 to 0.622 µM); in [9] (Staphylococcus aureus, MRSA), 2 to 4 µg/mL (≈ 1.24 to 2.49 µM); in [10] (setting [20]) it was > 16 µg/mL; in assay [11] (setting [21]), 1 to 2 µg/mL (≈ 0.622 to 1.24 µM).
As to `CCCCCCOc1ccc(S(=O)(=O)NCCCCCCNC(=O)Oc2cc(O)c3c(c2)[C@@H](C(=O)O)NC(=O)[C@H]2NC(=O)[C@H](NC(=O)[C@@H]4NC(=O)[C@H](CC(N)=O)NC(=O)[C@H](NC(=O)[C@@H](CC(C)C)NC)[C@H](O)c5ccc(c(Cl)c5)Oc5cc4cc(c5O[C@@H]4O[C@H](CO)[C@@H](O)[C@H](O)[C@H]4O[C@H]4C[C@](C)(N)[C@H](O)[C@H](C)O4)Oc4ccc(cc4Cl)[C@H]2O)c2ccc(O)c-3c2)cc1` (atropisomer, axis not shown) [Compound 349], the MIC was in the range of 0.01 to 0.5 µg/mL (≈ 0.00546 to 0.273 µM) in assay [1] (setting [12]); 0.01 to 0.5 µg/mL (≈ 0.00546 to 0.273 µM) in assay [2] (setting [13]); 4 to 8 µg/mL (≈ 2.18 to 4.37 µM) in [3] (setting [14]); 0.01 to 0.5 µg/mL (≈ 0.00546 to 0.273 µM) in assay [4] (setting [15]); 0.01 to 0.5 µg/mL (≈ 0.00546 to 0.273 µM) in assay [5] (setting [16]); 0.5 to 1 µg/mL (≈ 0.273 to 0.546 µM) in assay [6] (setting [17]). For the same compound, the MIC in [7] (setting [18]) is 0.01 to 0.5 µg/mL (≈ 0.00546 to 0.273 µM); in assay [8] (setting [19]), 0.01 to 0.5 µg/mL (≈ 0.00546 to 0.273 µM); in [9] (Staphylococcus aureus, MRSA), 0.01 to 0.5 µg/mL (≈ 0.00546 to 0.273 µM); in assay [10] (setting [20]), 0.5 to 1 µg/mL (≈ 0.273 to 0.546 µM); in [11] (setting [21]), 0.01 to 0.5 µg/mL (≈ 0.00546 to 0.273 µM).

The values are drawn from US20110015119A1, “NOVEL SEMI-SYNTHETIC GLYCOPEPTIDES AS ANTIBACTERIAL AGENTS” (LEAD THERAPEUTICS, INC., priority 2009, published 2011).
